Assay results as given in US4410512A, “Combinations having synergistic pituitary growth hormone releasing activity” (Beckman Instruments, Inc., priority 1981, dated 1983).
Square brackets hold non-standard residues; d marks the D form. Peptide text beside a SMILES is read from it.

System: pituitaries
Assay: In vitro growth hormone release study (incubated rat pituitaries, GH by RIA)
Assay type: cell-based
Details: mean of 9 assays ± SEM
Experimental: Female rats of the CD-1 strain were housed in a constant temperature room at 24° C. with 14 hours light and 10 hours darkness. The rats were fed Purina brand rat chow ab libitum. All studies were started between 0800 and 1000 hours.
Pituitaries were removed from 20 day old female rats. In each polytetrafluoroethylene beaker (10 ml) was incubated two pituitaries at 36° C. in 1 ml of lactated Ringer's solution in a Dubnoff Shaker (90 cycles/min.). All medium in each beaker was removed each hour (e.g., P1, P2, I3, I4, I5) and then fresh medium was added back to each beaker. Each medium removed was assayed for GH, in duplicate, by a standard radioimmunoassay (RIA).
The growth hormone agonist of Example 1 was not added to the incubation mediums employed during the first hour of the incubation period (P1) or to the incubation mediums employed during the second hour of the incubation period (P2). The growth hormone agonist of Example 1 was dissolved in dimethylsulfoxide (DMSO; 10:1, agonist:DMSO), added to each incubation medium employed during the third hour of the incubation period (I3), to each medium employed during the fourth hour of the incubation period (I4), and to each medium employed during the fifth hour of the incubation period (I5). The release of growth hormone was recorded as ΔGH and calculated by subtracting the amount of GH released at P2 from that released at I3, I4, and I5. The agonist activity was determined from the release at I3, I4, and I5.

| SMILES | ΔGH (peptide dosage 1 ng/ml incubation medium) | ΔGH (peptide dosage 3 ng/ml incubation medium) | ΔGH (peptide dosage 10 ng/ml incubation medium) | ΔGH (zeranol dosage 300 ng/ml incubation medium, pituitaries of 20 day old female rats, I3-I5 minus P2) | ΔGH (zeranol dosage 3,000 ng/ml incubation medium) | ΔGH (zeranol dosage 30,000 ng/ml incubation medium) | ΔGH (zeranol dosage 100,000 ng/ml incubation medium) |
| --- | --- | --- | --- | --- | --- | --- | --- |
| C[C@H](NC(=O)[C@@H](Cc1c[nH]c2ccccc12)NC(=O)[C@@H](N)Cc1c[nH]cn1)C(=O)N[C@@H](Cc1c[nH]c2ccccc12)C(=O)N[C@H](Cc1ccccc1)C(=O)N[C@@H](CCCCN)C(N)=O [H2 -His-D-Trp-Ala-Trp-D-Phe-Lys-NH2] (H-H[dW]AW[dF]K-NH2) | 887 ± 98 ng/ml incubation medium | 821 ± 138 ng/ml incubation medium | 2,759 ± 315 ng/ml incubation medium | – | – | – | – |
| C[C@H]1CCC[C@H](O)CCCCCc2cc(O)cc(O)c2C(=O)O1 [Zeranol, zeranol] | – | – | – | 83 ± 63 ng/ml incubation medium | 87 ± 59 ng/ml incubation medium | 683 ± 187 ng/ml incubation medium | -133 ± 98 ng/ml incubation medium |
